This assay addresses EcThrRS (Escherichia coli, UniProt P0A8M3). As to the kind of experiment: tRNA aminoacylation assay, initial rates, dose-response fit. In kind it is biochemical.

The text below walks through data of publication doi:10.1101/704981v1 (biorxiv, 2019).

The term IC50 denotes the concentration that inhibits the measured activity by half. A high value points to weaker potency in that assay.

Sequence of EcThrRS (P0A8M3 whole entry): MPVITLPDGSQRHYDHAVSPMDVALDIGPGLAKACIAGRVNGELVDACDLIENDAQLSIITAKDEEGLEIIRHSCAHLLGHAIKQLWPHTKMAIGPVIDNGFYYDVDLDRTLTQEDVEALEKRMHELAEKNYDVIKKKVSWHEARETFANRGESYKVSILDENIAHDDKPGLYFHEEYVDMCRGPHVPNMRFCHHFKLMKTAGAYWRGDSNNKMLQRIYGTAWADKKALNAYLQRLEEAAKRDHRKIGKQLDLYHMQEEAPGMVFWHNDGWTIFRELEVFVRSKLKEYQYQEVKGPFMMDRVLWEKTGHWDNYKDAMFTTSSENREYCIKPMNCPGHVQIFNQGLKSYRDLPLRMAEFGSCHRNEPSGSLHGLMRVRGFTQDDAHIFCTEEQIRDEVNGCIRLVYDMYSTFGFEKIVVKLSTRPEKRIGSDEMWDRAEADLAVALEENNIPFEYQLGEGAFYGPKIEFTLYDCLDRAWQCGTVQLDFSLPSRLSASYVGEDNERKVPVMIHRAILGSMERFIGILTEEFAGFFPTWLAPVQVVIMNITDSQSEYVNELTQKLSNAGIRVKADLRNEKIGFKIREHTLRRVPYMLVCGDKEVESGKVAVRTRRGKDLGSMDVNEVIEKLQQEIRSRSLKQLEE

Take `O=C(N[C@@H]1C(=O)O[C@@H]1Cc1ccc([N+](=O)[O-])cc1)c1cccc(O)c1O` [compound 1, obafluorin]: 92 ± 21 nM corresponded to half-maximal inhibition (IC50).
